Experimental data taken from patent US20150105252A1, “SUBSTITUTED PYRAZOLES AS HERBICIDES” (E I DU PONT DE NEMOURS AND COMPANY, priority 2013, published 2015).

Experiments:
barnyardgrass [1] = assay: Test A preemergence; assay type: in vivo, Echinochloa crus-galli; conditions: preemergence
Method in brief: (§1)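 Greenhouse test in loam soil/sand blend; compounds formulated in non-phytotoxic solvent with surfactant, applied as preemergence directed soil spray or postemergence to plants 2–10 cm tall at one- to two-leaf stage. Injury rated visually versus untreated controls after approximately 10 days on a 0 (no effect) to 100 (complete control) scale.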

barnyardgrass [2] = assay: Test B flood; assay type: in vivo, Echinochloa crus-galli; conditions: 250 g ai/ha, visual rating on 0 to 100 scale (0 no effect, 100 complete control), 13 to 15 days
Method in brief: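 Greenhouse assay lasting 13 to 15 days. Treatment was into water flooding pots 3 cm deep, at the 2-leaf stage, with that level sustained afterwards. Scores compare treated with control plants visually, 100 denoting complete control and 0 no effect; a dash marks no test result.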

oilseed rape = assay: Test C preemergence; assay type: in vivo, Brassica napus; conditions: for Plant response rating (scale of 0 to 100), Oilseed Rape: Preemergence, 250 g ai/ha
Text: (§2) Seeds of plant species selected from blackgrass (Alopecurus myosuroides), ryegrass, Italian (Italian ryegrass, Lolium multiflorum), wheat (winter wheat, Triticum aestivum), galium (catchweed bedstraw, Galium aparine), corn (Zea mays), crabgrass, large (large crabgrass, Digitaria sanguinalis), foxtail, giant (giant foxtail, Setaria faberii), johnsongrass (Sorghum halepense), lambsquarters (Chenopodium album), morningglory (Ipomoea coccinea), nutsedge, yellow (yellow nutsedge, Cyperus esculentus), pigweed (redroot pigweed, Amaranthus retroflexus), ragweed (common ragweed, Ambrosia elation), soybean (Glycine max), barnyardgrass (Echinochloa crus-galli), oilseed rape (Brassica napus), waterhemp (common waterhemp, Amaranthus rudis), oat, wild (wild oat, Avena fatua), kochia (Kochia scoparia), Surinam grass (Brachiaria decumbens), foxtail, green (green foxtail, Setaria viridis), goosegrass (Eleusine indica), bromegrass, downy (downy bromegrass, Bromus tectorum), nightshade (eastern black nightshade, Solanum ptycanthum), cocklebur (common cocklebur, Xanthium strumarium), cupgrass, woolly (woolly cupgrass, Eriochloa villosa), bermudagrass (Cynodon dactylon), sunflower, (common oilseed sunflower, Helianthus annuus), Russian thistle (Salsola kali), and velvetleaf (Abutilon theophrasti) were planted into a blend of loam soil and sand and treated preemergence with test chemicals formulated in a non-phytotoxic solvent mixture which included a surfactant.
(§3) At the same time, plants selected from these crop and weed species and also chickweed (common chickweed, Stellaria media), canarygrass (littleseed canarygrass, Phalaris minor), and deadnettle (henbit deadnettle, Lamium amplexicaule), were planted in pots containing Redi-Earth® planting medium (Scotts Company, 14111 Scottslawn Road, Marysville, Ohio 43041) comprising spaghnum peat moss, vermiculite, wetting agent and starter nutrients and treated with postemergence applications of test chemicals formulated in the same manner. Plants ranged in height from 2 to 18 cm (1- to 4-leaf stage) for postemergence treatments. Treated plants and controls were maintained in a greenhouse for 13 to 15 days, after which time all species were compared to controls and visually evaluated. Plant response ratings, summarized in Table C, are based on a scale of 0 to 100 where 0 is no effect and 100 is complete control. A dash (-) response means no test result.

corn = assay: Test C preemergence; assay type: in vivo, Zea mays; conditions: for Plant response rating (scale of 0 to 100), Corn: Preemergence, 250 g ai/ha
Text: as §2, §3

johnsongrass = assay: Test C preemergence; assay type: in vivo, Sorghum halepense; conditions: for Plant response rating (scale of 0 to 100), Johnsongrass: Preemergence, 250 g ai/ha
Text: as §2, §3

ryegrass, Italian = assay: Test C preemergence; assay type: in vivo, Lolium multiflorum; conditions: for Plant response rating (scale of 0 to 100), Ryegrass, Italian: Preemergence, 250 g ai/ha
Text: as §2, §3

foxtail, giant [3] = assay: Test A preemergence; assay type: in vivo, Setaria faberii; conditions: preemergence
Method in brief: as §1

foxtail, giant [4] = assay: Test C preemergence; assay type: in vivo, Setaria faberii; conditions: for Plant response rating (scale of 0 to 100), Foxtail, Giant: Preemergence, 250 g ai/ha
Text: as §2, §3

crabgrass, large = assay: Test C preemergence; assay type: in vivo, Digitaria sanguinalis; conditions: for Plant response rating (scale of 0 to 100), Crabgrass, Large: Preemergence, 250 g ai/ha
Method in brief: (§4)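 Pre- and postemergence greenhouse screen; vehicle was a non-phytotoxic solvent mix with surfactant. Preemergence: treatment applied right after sowing into loam and sand. Postemergence: treated at 1–4 leaves. Visual rating at 13–15 days, 100 = complete control.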

ragweed = assay: Test C preemergence; assay type: in vivo, Ambrosia elation; conditions: for Plant response rating (scale of 0 to 100), Ragweed: Preemergence, 250 g ai/ha
Method in brief: as §4

barnyardgrass [5] = assay: Test C preemergence; assay type: in vivo, Echinochloa crus-galli; conditions: for Plant response rating (scale of 0 to 100), Barnyardgrass: Preemergence, 250 g ai/ha
Method in brief: as §4

[6] = 125 g ai/ha, visual injury, 0 to 100 scale, approx. 10 days
[7] = 500 g ai/ha, visual injury after approx. 10 days, 0 to 100 scale (0 no effect, 100 complete control)
[8] = preemergence, 31 g ai/ha, visual rating, scale 0 to 100 (0 no effect, 100 complete control), 13 to 15 days
[9] = preemergence, 62 g ai/ha, scale 0 to 100 (0 no effect, 100 complete control), 13 to 15 days
[10] = preemergence, 125 g ai/ha, scale 0 to 100, 0 is no effect, 100 is complete control
[11] = preemergence, 31 g ai/ha, scale 0 to 100 (0 no effect, 100 complete control), 13 to 15 days
[12] = preemergence, 125 g ai/ha, 13 to 15 days, scale 0 to 100, 0 = no effect, 100 = complete control

Row | SMILES | Barnyardgrass plant response rating (barnyardgrass [1]; [6]) | Barnyardgrass plant response rating (barnyardgrass [1]; [7]) | Plant response rating, Barnyardgrass (barnyardgrass [2]) | Plant response rating (scale of 0 to 100), Oilseed Rape (oilseed rape) | Oilseed Rape plant response rating (oilseed rape; [8]) | Oilseed Rape plant response rating (oilseed rape; [9]) | Plant response rating (scale of 0 to 100), Corn (corn) | Corn plant response rating (corn; [8]) | Corn plant response rating (corn; [9]) | Plant response rating (scale of 0 to 100), Johnsongrass (johnsongrass) | Johnsongrass plant response rating (johnsongrass; [8]) | Johnsongrass plant response rating (johnsongrass; [9]) | Plant response rating (scale of 0 to 100), Ryegrass, Italian (ryegrass, Italian) | Ryegrass, Italian plant response rating (ryegrass, Italian; [8]) | Ryegrass, Italian plant response rating (ryegrass, Italian; [9]) | Foxtail, Giant plant response rating (foxtail, giant [3]; [6]) | Foxtail, Giant plant response rating (foxtail, giant [3]; [7]) | Plant response rating (scale of 0 to 100), Foxtail, Giant (foxtail, giant [4]) | Foxtail, Giant plant response rating (foxtail, giant [4]; [8]) | Foxtail, Giant plant response rating (foxtail, giant [4]; [9]) | other results
1 | CCONC(=O)c1cc(CC)n(Cc2cc(C(F)(F)F)no2)n1 [Compound 125] | 80 | 100 | 20 | 95 | 30 | 60 | 45 | 0 | 5 | 10 | 0 | 0 | 95 | 0 | 30 | 80 | 100 | 90 | 20 | 35 | Oilseed Rape plant response rating (oilseed rape; [10]): 95; Corn plant response rating (corn; [10]): 10; Johnsongrass plant response rating (johnsongrass; [10]): 5; Ryegrass, Italian plant response rating (ryegrass, Italian; [10]): 20; Foxtail, Giant plant response rating (foxtail, giant [4]; [10]): 90; Plant response rating (scale of 0 to 100), Crabgrass, Large (crabgrass, large): 95; Crabgrass, Large plant response rating (crabgrass, large; [8]): 5; Crabgrass, Large plant response rating (crabgrass, large; [9]): 25; Crabgrass, Large plant response rating (crabgrass, large; [10]): 75; Plant response rating (scale of 0 to 100), Ragweed (ragweed): 75; Ragweed plant response rating (ragweed; [8]): 5; Ragweed plant response rating (ragweed; [9]): 10; Ragweed plant response rating (ragweed; [10]): 55; Plant response rating (scale of 0 to 100), Barnyardgrass (barnyardgrass [5]): 100; Barnyardgrass plant response rating (barnyardgrass [5]; [11]): 5; Barnyardgrass plant response rating (barnyardgrass [5]; [9]): 50; Barnyardgrass plant response rating (barnyardgrass [5]; [10]): 80
2 | CCOc1cc(C(=O)NC2CC2)nn1Cc1ccnc(OC(F)F)c1 [Compound 133] | 90 | 100 | 40 | 100 | 60 | 100 | 95 | 5 | 25 | 98 | 40 | 85 | 95 | 35 | 85 | 100 | 100 | 100 | 85 | 100 | Plant response rating, Oilseed Rape (oilseed rape; [12]): 100; Plant response rating, Corn (corn; [12]): 45; Plant response rating, Johnsongrass (johnsongrass; [12]): 90; Plant response rating, Ryegrass, Italian (ryegrass, Italian; [12]): 90; Plant response rating, Foxtail, Giant (foxtail, giant [4]; [12]): 100; Plant response rating (scale of 0 to 100), Crabgrass, Large (crabgrass, large): 100; Crabgrass, Large plant response rating (crabgrass, large; [8]): 100; Crabgrass, Large plant response rating (crabgrass, large; [9]): 100; Plant response rating, Crabgrass, Large (crabgrass, large; [12]): 100; Plant response rating (scale of 0 to 100), Ragweed (ragweed): 100; Ragweed plant response rating (ragweed; [8]): 10; Ragweed plant response rating (ragweed; [9]): 60; Plant response rating, Ragweed (ragweed; [12]): 100; Plant response rating (scale of 0 to 100), Barnyardgrass (barnyardgrass [5]): 100; Barnyardgrass plant response rating (barnyardgrass [5]; [11]): 65; Barnyardgrass plant response rating (barnyardgrass [5]; [9]): 60; Plant response rating, Barnyardgrass (barnyardgrass [5]; [12]): 100
